Reference: patent publication US11612606B2, “8-aminoisoquinoline compounds and uses thereof” (priority 2018, dated 2023)
Structures can show the parent of a compound that is named as a salt.

Biological target: HPK full length, T165E S171E (Homo sapiens (Human), UniProt Q92918, S171E/T165E)
Assay: HPK1-FL HTRF enzymatic assay ("HTRF")
Format: biochemical
Conditions: ATP 1 mM, read-out: HPK1 Ki
Method in brief: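 Full-length HPK1 (T165E/S171E) was preincubated 30 min with compound, then reacted 60 min with biotin-SLP-76 and 1 mM ATP. Phospho-SLP-76 was detected by HTRF (Eu-anti-pSLP76 antibody, SA-XL665) after a further 60 min.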

Sequence of HPK full length, T165E S171E (Q92918 whole entry T165E/S171E, looked up): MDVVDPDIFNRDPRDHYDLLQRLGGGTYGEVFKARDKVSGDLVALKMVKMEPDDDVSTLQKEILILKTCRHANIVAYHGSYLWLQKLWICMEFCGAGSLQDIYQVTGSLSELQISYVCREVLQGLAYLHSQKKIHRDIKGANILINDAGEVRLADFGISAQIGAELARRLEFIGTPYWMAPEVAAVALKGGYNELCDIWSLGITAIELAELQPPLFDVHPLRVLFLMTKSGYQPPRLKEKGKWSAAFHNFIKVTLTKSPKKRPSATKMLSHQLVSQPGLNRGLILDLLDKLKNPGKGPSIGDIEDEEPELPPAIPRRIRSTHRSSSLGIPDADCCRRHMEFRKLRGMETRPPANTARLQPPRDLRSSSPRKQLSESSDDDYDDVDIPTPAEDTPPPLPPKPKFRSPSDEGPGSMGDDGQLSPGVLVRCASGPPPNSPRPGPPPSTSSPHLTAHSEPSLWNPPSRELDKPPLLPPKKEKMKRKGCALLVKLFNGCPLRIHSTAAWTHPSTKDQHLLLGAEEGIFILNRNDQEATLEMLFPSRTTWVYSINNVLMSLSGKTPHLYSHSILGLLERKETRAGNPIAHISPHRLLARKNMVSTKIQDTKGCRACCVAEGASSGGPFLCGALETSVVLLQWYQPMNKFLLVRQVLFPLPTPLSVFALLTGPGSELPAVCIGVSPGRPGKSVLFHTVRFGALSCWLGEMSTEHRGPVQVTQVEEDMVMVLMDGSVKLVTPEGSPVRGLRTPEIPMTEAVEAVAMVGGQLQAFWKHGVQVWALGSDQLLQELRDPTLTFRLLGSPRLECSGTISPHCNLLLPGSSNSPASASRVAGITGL

Compound	Ki [nM]
Cc1c(-c2cc3cc(NC(=O)OC[C@]4(F)CCN(C)C4)ncc3c(N)c2F)cnc2c1NCCO2 (single isomer, unassigned) [Compound 451b]	< 0.013
Cc1c(-c2cc3cc(NC(=O)O[C@H]4COC[C@H]4F)ncc3c(N)c2F)cnc2c1NCCO2 [Compound 477c, (3S,4R)-4-Fluorotetrahydrofuran-3-yl (8-amino-7-fluoro-6-(8-methyl-2,3-dihydro-1H-pyrido[2,3-b][1,4]oxazin-7-yl)isoquinolin-3-yl)carbamate]	0.15
Cc1c(-c2cc3cc(NC(=O)O[C@@H]4CC[C@@H]4C)ncc3c(N)c2F)cnc2c1NCCO2 (single isomer, unassigned) [Compound 559a]	0.025
Cc1c(-c2cc3cc(NC(=O)N[C@@H]4CCCOC4)ncc3c(N)c2F)cnc2c1NCCO2 (single isomer, unassigned) [Compound 711b]	< 0.013
Cc1c(-c2cc3cc(NC(=O)OC4CN(S(=O)(=O)C5CC5)C4)ncc3c(N)c2F)cnc2c1NCCO2 [Compound 524, (1-Cyclopropylsulfonylazetidin-3-yl)-N-[8-amino-7-fluoro-6-(8-methyl-2,3-dihydro-1H-pyrido[2,3-b][1,4]oxazin-7-yl)-3-isoquinolyl]-carbamate hydrochloride]	0.02
Cc1c(-c2cc3cc(NC(=O)O[C@H]4[C@@H]5COC[C@@H]54)ncc3c(N)c2F)cnc2c1NCCO2 [Compound 543a, (1R,5S,6s)-3-oxabicyclo[3.1.0]hexan-6-yl (8-amino-7-fluoro-6-(8-methyl-2,3-dihydro-1H-pyrido[2,3-b][1,4]oxazin-7-yl)isoquinolin-3-yl)carbamate]	< 0.013
Cc1c(-c2cc3cc(NC(=O)O[C@@H]4CCN(C5COC5)C[C@H]4F)ncc3c(N)c2F)cnc2c1NCCO2 (relative stereo) [Compound 445ab, (+1-)-trans-3-Fluoro-1-(oxetan-3-yl)piperidin-4-yl (8-amino-7-fluoro-6-(8-methyl-2,3-dihydro-1H-pyrido[2,3-b][1,4]oxazin-7-yl)isoquinolin-3-yl)carbamate]	< 0.013
CO[C@H]1COCC[C@H]1OC(=O)Nc1cc2cc(-c3cnc4c(c3C)NCCO4)c(F)c(N)c2cn1 (single isomer, unassigned) [Compound 583b]	0.021
Cc1c(-c2cc3cc(NC(=O)OC4CC5(CCN(C6COC6)CC5)C4)ncc3c(N)c2F)cnc2c1NCCC2 [Compound 430, 7-(Oxetan-3-yl)-7-azaspiro[3.5]nonan-2-yl (8-amino-7-fluoro-6-(4-methyl-5,6,7,8-tetrahydro-1,5-naphthyridin-3-yl)isoquinolin-3-yl)carbamate]	< 0.013
Cc1c(-c2cc3cc(NC(=O)O[C@H]4CN(C)C[C@@H]4C)ncc3c(N)c2F)cnc2c1NCCO2 (single isomer, unassigned) [Compound 442d]	0.046
CNC(=O)[C@H]1C[C@@H](OC(=O)Nc2cc3cc(-c4cnc5c(c4C)NCCO5)c(F)c(N)c3cn2)C1 [Compound 520a, (1s,3s)-3-(Methylcarbamoyl)cyclobutyl (8-amino-7-fluoro-6-(8-methyl-2,3-dihydro-1H-pyrido[2,3-b][1,4]oxazin-7-yl)isoquinolin-3-yl)carbamate hydrochloride]	< 0.013
Cc1c(-c2cc3cc(NC(=O)OC4CN(CC(F)(F)F)C4)ncc3c(N)c2F)cnc2c1NCCO2 [Compound 420, 1-(2,2,2-Trifluoroethyl)azetidin-3-yl (8-amino-7-fluoro-6-(8-methyl-2,3-dihydro-1H-pyrido[2,3-b][1,4]oxazin-7-yl)isoquinolin-3-yl)carbamate]	< 0.013
Cc1c(-c2cc3cc(NC(=O)N[C@H]4CCN(C)C[C@H]4F)ncc3c(N)c2F)cnc2c1NCCO2 (single isomer, unassigned) [Compound 703c, (±)-1-(8-Amino-7-fluoro-6-(8-methyl-2,3-dihydro-1H-pyrido[2,3-b][1,4]oxazin-7-yl)isoquinolin-3-yl)-3-((cis)-3-fluoro-1-methylpiperidin-4-yl)urea]	0.03
CC(=O)N1CC[C@H](NC(=O)Nc2cc3cc(-c4cnc5c(c4C)NCCO5)c(F)c(N)c3cn2)[C@H](F)C1 (single isomer, unassigned) [Compound 710a, (±)-1-((cis)-1-Acetyl-3-fluoropiperidin-4-yl)-3-(8-amino-7-fluoro-6-(8-methyl-2,3-dihydro-1H-pyrido[2,3-b][1,4]oxazin-7-yl)isoquinolin-3-yl)urea]	< 0.013
Cc1c(-c2cc3cc(NC(=O)O[C@H]4C[C@@H](C(C)(C)O)C4)ncc3c(N)c2F)cnc2c1NCCO2 [Compound 574b, (1s,3s)-3-(2-hydroxypropan-2-yl)cyclobutyl (8-amino-7-fluoro-6-(8-methyl-2,3-dihydro-1H-pyrido[2,3-b][1,4]oxazin-7-yl)isoquinolin-3-yl)carbamate]	< 0.013
Cc1c(-c2cc3cc(NC(=O)OC4CC5(C4)CN(CC(F)F)C5)ncc3c(N)c2F)cnc2c1NCCC2 [Compound 532, 2-(2,2-Difluoroethyl)-2-azaspiro[3.3]heptan-6-yl (8-amino-7-fluoro-6-(4-methyl-5,6,7,8-tetrahydro-1,5-naphthyridin-3-yl)isoquinolin-3-yl)carbamate]	0.014
Cc1c(-c2cc3cc(NC(=O)O[C@@H]4CO[C@]5(CCN(C)C5)C4)ncc3c(N)c2F)cnc2c1NCCO2 (single isomer, unassigned) [Compound 467c]	0.027

Compound	Ki [nM]
Cc1c(-c2cc3cc(NC(=O)O[C@H]4C[C@@H](C#N)C4)ncc3c(N)c2F)cnc2c1NCCO2 [Compound 484a, (1s,3s)-3-Cyanocyclobutyl (8-amino-7-fluoro-6-(8-methyl-2,3-dihydro-1H-pyrido[2,3-b][1,4]oxazin-7-yl)isoquinolin-3-yl)carbamate]	< 0.013
Cc1c(-c2cc3cc(NC(=O)OC4CC(O)(C5CC5)C4)ncc3c(N)c2F)cnc2c1NCCO2 (stereo not drawn) [Compound 551a, (3-Cyclopropyl-3-hydroxy-cyclobutyl) N-[8-amino-7-fluoro-6-(8-methyl-2,3-dihydro-1H-pyrido[2,3-b][1,4]oxazin-7-yl)-3-isoquinolyl]carbamate]	< 0.013
Cc1c(-c2cc3cc(NC(=O)OC4CN(C5CC5)C4)ncc3c(N)c2F)cnc2c1NCCO2 [Compound 540, 1-Cyclopropylazetidin-3-yl (8-amino-7-fluoro-6-(8-methyl-2,3-dihydro-1H-pyrido[2,3-b][1,4]oxazin-7-yl)isoquinolin-3-yl)carbamate]	0.021
Cc1c(-c2cc3cc(NC(=O)O[C@@H]4CCC5(CCN(C6COC6)CC5)C4)ncc3c(N)c2F)cnc2c1NCCO2 (single isomer, unassigned) [Compound 511a]	< 0.013
Cc1c(-c2cc3cc(NC(=O)O[C@@H](C)CN(C)C)ncc3c(N)c2F)cnc2c1NCCO2 (single isomer, unassigned) [Compound 523b, (5)-1-(Dimethylamino)propan-2-yl (8-amino-7-fluoro-6-(8-methyl-2,3-dihydro-1H-pyrido[2,3-b][1,4]oxazin-7-yl)isoquinolin-3-yl)carbamate]	8.75
Cc1c(-c2cc3cc(NC(=O)O[C@H]4CCNC4)ncc3c(N)c2F)cnc2c1NCCO2 (single isomer, unassigned) [Compound 405b]	0.158
Cc1c(-c2cc3cc(NC(=O)NC4CN(CC(F)(F)F)C4)ncc3c(N)c2F)cnc2c1NCCO2 [Compound 721, 1-(8-Amino-7-fluoro-6-(8-methyl-2,3-dihydro-1H-pyrido[2,3-b][1,4]oxazin-7-yl)isoquinolin-3-yl)-3-(1-(2,2,2-trifluoroethyl)azetidin-3-yl)urea]	< 0.013
Cc1c(-c2cc3cc(NC(=O)OC4C5COCC4CN(CC(F)F)C5)ncc3c(N)c2F)cnc2c1NCCO2 (single isomer, unassigned) [Compound 507a]	< 0.013
Cc1c(-c2cc3cc(NC(=O)NC4CC5(C4)CN(CC(F)F)C5)ncc3c(N)c2F)cnc2c1NCCC2 [Compound 739, 1-(8-Amino-7-fluoro-6-(4-methyl-5,6,7,8-tetrahydro-1,5-naphthyridin-3-yl)isoquinolin-3-yl)-3-(2-(2,2-difluoroethyl)-2-azaspiro[3.3]heptan-6-yl)urea]	< 0.013
CC(=O)N1CC[C@@H](OC(=O)Nc2cc3cc(-c4cnc5c(c4C)NCCO5)c(F)c(N)c3cn2)C1 (single isomer, unassigned) [Compound 418a]	< 0.013
Cc1c(-c2cc3cc(NC(=O)N[C@H]4C[C@@]5(CCOC5)C4)ncc3c(N)c2F)cnc2c1NCCC2 [Compound 740b, 1-(8-Amino-7-fluoro-6-(4-methyl-5,6,7,8-tetrahydro-1,5-naphthyridin-3-yl)isoquinolin-3-yl)-3-((2r,4r)-6-oxaspiro[3.4]octan-2-yl)urea]	< 0.013
Cc1c(-c2cc3cc(NC(=O)OC4CCS(=O)(=O)CC4)ncc3c(N)c2F)cnc2c1NCCC2 [Compound 579, 1,1-Dioxidotetrahydro-2H-thiopyran-4-yl (8-amino-7-fluoro-6-(4-methyl-5,6,7,8-tetrahydro-1,5-naphthyridin-3-yl)isoquinolin-3-yl)carbamate]	0.85
Cc1c(-c2cc3cc(NC(=O)N(C)C)ncc3c(N)c2F)cnc2c1NCCO2 [Compound 742, 3-(8-Amino-7-fluoro-6-(8-methyl-2,3-dihydro-1H-pyrido[2,3-b][1,4]oxazin-7-yl)isoquinolin-3-yl)-1,1-dimethylurea]	1.12
Cc1c(-c2cc3cc(NC(=O)O[C@H]4CCCNC4)ncc3c(N)c2F)cnc2c1NCCO2 (single isomer, unassigned) [Compound 408a]	0.089
Cc1c(-c2cc3cc(NC(=O)O[C@@H]4CN(C)C[C@H]4C)ncc3c(N)c2F)cnc2c1NCCO2 (single isomer, unassigned) [Compound 442c]	0.154
Cc1c(-c2cc3cc(NC(=O)O[C@H]4[C@@H]5CN(C(C)C)C[C@@H]54)ncc3c(N)c2F)cnc2c1NCCO2 [Compound 499a, (1R,5S,6s)-3-Isopropyl-3-azabicyclo[3.1.0]hexan-6-yl (8-amino-7-fluoro-6-(8-methyl-2,3-dihydro-1H-pyrido[2,3-b][1,4]oxazin-7-yl)isoquinolin-3-yl)carbamate]	< 0.013
